Results: ChEMBL document CHEMBL5678818, “Discovery of potent SOS1 inhibitors that block RAS activation via disruption of the RAS-SOS1 interaction” (Proc Natl Acad Sci U S A, 2019)

Key:
[1] = target: Tyrosine-protein kinase BTK (Homo sapiens) (UniProt Q06187); assay: Inhibition of BTK (unknown origin) assessed as residual activity at 1000 nM by KINOMEscan analysis relative to control
[2] = target: Cyclin-dependent kinase 13 (Homo sapiens) (UniProt Q14004); assay: Inhibition of CDC2L5 (unknown origin) assessed as residual activity at 1000 nM by KINOMEscan analysis relative to control
Cyclin-dependent kinase 13 (Homo sapiens), sequence (Q14004 whole entry, looked up): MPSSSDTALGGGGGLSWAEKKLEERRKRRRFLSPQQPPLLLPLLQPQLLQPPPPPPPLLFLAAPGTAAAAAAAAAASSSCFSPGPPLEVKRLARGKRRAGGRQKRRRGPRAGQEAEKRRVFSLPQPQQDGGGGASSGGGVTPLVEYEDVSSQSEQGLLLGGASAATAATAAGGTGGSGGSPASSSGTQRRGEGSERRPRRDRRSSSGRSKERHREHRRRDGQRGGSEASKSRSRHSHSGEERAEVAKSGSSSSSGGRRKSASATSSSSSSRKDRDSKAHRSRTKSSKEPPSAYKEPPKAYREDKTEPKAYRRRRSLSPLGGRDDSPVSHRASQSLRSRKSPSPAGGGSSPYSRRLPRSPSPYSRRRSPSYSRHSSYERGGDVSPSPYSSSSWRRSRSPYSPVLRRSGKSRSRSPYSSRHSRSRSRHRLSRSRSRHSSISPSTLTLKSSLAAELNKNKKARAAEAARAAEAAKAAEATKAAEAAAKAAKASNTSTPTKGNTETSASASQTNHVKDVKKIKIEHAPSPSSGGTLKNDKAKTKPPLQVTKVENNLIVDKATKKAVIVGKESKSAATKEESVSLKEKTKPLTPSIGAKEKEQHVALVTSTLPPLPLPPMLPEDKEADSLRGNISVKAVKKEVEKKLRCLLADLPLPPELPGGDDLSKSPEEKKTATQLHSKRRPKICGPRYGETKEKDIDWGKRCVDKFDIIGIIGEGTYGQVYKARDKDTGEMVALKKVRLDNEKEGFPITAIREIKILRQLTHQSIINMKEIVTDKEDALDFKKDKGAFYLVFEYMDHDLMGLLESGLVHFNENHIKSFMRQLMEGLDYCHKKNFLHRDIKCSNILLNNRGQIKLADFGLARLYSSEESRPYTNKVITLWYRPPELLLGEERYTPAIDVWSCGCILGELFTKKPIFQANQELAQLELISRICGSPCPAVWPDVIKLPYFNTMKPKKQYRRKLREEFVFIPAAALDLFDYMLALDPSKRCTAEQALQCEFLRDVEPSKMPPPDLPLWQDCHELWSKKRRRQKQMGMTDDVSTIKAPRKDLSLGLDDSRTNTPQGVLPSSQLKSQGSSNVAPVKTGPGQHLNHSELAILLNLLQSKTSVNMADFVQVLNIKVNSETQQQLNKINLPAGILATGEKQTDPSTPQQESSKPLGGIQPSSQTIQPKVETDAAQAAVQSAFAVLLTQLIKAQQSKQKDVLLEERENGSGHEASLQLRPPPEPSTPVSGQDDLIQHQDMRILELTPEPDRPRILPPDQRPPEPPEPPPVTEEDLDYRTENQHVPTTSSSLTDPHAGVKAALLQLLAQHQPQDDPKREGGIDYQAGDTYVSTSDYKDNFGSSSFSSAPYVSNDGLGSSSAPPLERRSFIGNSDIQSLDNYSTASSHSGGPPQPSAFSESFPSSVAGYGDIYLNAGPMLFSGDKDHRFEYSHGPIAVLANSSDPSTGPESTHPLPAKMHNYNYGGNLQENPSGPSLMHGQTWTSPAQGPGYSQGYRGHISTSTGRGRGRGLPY

[3] = target: Cyclin-dependent kinase 5 (Homo sapiens) (UniProt Q00535); assay: Inhibition of CDK5 (unknown origin) assessed as residual activity at 1000 nM by KINOMEscan analysis relative to control
Cyclin-dependent kinase 5 (Homo sapiens), sequence (Q00535 whole entry, looked up): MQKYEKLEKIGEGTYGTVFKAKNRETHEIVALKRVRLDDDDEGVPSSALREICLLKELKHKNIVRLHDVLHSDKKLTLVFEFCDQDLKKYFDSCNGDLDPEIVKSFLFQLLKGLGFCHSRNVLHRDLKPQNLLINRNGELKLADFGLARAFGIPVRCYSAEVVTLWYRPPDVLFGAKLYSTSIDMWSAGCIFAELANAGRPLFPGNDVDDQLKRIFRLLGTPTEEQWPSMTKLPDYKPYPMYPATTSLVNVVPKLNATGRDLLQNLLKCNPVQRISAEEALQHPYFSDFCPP

[4] = target: Glycogen synthase kinase-3 beta (Homo sapiens) (UniProt P49841); assay: Inhibition of GSK3B (unknown origin) assessed as residual activity at 1000 nM by KINOMEscan analysis relative to control
Glycogen synthase kinase-3 beta (Homo sapiens), sequence (P49841 whole entry, looked up): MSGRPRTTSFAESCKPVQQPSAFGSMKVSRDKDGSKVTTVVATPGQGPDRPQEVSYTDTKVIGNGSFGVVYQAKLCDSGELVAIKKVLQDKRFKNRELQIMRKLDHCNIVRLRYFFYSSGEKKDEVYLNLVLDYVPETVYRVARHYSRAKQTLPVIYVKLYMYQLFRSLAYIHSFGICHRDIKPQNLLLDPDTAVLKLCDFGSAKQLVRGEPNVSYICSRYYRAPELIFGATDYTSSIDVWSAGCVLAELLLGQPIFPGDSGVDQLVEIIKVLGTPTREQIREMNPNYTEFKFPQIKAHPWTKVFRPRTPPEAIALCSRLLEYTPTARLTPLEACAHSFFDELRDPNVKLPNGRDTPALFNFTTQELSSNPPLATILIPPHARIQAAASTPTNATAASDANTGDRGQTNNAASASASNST

[5] = target: Leukocyte tyrosine kinase receptor (Homo sapiens) (UniProt P29376); assay: Inhibition of LTK (unknown origin) assessed as residual activity at 1000 nM by KINOMEscan analysis relative to control
Leukocyte tyrosine kinase receptor (Homo sapiens), sequence (P29376 whole entry): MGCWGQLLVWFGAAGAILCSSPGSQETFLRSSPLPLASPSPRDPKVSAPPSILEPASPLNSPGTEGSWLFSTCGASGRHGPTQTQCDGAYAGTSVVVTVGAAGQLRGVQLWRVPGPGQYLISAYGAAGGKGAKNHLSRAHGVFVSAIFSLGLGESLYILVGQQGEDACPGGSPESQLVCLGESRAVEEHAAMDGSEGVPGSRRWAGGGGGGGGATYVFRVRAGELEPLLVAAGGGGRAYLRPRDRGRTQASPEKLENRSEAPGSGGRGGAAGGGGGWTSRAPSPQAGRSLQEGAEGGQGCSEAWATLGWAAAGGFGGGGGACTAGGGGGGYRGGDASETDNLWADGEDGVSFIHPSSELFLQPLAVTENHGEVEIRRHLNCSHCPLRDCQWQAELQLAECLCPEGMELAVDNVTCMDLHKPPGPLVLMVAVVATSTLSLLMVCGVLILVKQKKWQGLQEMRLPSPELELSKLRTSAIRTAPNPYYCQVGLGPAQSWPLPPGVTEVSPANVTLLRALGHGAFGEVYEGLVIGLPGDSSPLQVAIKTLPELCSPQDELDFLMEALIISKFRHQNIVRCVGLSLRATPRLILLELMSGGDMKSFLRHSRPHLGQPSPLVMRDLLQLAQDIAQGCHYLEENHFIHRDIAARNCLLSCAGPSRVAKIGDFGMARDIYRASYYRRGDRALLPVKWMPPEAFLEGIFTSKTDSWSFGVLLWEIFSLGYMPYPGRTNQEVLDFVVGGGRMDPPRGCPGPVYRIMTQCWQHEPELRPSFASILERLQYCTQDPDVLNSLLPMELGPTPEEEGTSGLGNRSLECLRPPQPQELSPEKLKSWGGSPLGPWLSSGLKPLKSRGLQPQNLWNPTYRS

[6] = target: T1, Tyrosine-protein kinase Mer (Homo sapiens) (UniProt Q12866); assay: Inhibition of MERTK (unknown origin) assessed as residual activity at 1000 nM by KINOMEscan analysis relative to control
T1 sequence (whole entry): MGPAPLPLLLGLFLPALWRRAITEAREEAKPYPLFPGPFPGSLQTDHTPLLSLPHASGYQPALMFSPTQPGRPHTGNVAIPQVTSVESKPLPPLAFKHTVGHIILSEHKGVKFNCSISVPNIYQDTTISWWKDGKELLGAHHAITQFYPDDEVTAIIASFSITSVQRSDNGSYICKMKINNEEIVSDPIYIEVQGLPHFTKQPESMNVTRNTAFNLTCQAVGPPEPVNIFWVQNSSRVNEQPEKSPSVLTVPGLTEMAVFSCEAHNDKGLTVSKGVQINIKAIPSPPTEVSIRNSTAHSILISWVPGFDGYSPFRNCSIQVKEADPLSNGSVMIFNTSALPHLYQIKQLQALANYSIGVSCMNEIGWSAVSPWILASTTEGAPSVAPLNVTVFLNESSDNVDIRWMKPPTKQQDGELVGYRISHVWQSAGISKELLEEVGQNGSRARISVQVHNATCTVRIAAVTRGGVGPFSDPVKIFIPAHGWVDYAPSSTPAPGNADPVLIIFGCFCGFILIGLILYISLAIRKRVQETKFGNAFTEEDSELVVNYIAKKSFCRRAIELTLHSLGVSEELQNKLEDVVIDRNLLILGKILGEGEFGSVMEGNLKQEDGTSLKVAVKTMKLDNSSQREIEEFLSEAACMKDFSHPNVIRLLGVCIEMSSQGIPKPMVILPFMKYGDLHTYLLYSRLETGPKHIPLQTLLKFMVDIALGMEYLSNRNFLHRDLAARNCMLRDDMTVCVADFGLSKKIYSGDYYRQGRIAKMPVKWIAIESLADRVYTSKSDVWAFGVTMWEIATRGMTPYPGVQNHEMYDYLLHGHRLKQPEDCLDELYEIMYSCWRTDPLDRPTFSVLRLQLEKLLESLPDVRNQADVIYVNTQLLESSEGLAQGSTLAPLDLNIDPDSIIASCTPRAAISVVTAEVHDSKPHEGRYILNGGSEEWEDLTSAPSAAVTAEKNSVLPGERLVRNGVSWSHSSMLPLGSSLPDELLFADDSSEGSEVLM

[7] = target: T2, Serine/threonine-protein kinase Nek11 (Homo sapiens) (UniProt Q8NG66); assay: Inhibition of NEK11 (unknown origin) assessed as residual activity at 1000 nM by KINOMEscan analysis relative to control
T2 sequence (whole entry): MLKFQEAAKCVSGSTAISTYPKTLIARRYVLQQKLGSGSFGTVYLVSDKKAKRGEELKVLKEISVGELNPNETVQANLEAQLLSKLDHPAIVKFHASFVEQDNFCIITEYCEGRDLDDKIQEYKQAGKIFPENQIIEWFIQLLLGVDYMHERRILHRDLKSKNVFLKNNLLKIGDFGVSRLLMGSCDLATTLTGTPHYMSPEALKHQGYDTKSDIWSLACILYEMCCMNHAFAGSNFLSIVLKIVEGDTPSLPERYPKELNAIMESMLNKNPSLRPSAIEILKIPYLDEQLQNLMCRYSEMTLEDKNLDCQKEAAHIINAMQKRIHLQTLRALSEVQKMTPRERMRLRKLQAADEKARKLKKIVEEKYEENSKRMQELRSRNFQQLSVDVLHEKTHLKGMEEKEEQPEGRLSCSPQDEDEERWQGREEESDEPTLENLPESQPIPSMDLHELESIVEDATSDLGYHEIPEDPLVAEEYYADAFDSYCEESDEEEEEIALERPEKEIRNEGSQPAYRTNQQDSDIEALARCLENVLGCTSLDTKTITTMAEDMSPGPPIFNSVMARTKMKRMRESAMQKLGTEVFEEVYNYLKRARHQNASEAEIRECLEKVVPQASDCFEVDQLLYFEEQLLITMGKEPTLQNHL

[8] = target: Serine/threonine-protein kinase VRK2 (Homo sapiens) (UniProt Q86Y07); assay: Inhibition of VRK2 (unknown origin) assessed as residual activity at 1000 nM by KINOMEscan analysis relative to control
Serine/threonine-protein kinase VRK2 (Homo sapiens), sequence (Q86Y07 whole entry): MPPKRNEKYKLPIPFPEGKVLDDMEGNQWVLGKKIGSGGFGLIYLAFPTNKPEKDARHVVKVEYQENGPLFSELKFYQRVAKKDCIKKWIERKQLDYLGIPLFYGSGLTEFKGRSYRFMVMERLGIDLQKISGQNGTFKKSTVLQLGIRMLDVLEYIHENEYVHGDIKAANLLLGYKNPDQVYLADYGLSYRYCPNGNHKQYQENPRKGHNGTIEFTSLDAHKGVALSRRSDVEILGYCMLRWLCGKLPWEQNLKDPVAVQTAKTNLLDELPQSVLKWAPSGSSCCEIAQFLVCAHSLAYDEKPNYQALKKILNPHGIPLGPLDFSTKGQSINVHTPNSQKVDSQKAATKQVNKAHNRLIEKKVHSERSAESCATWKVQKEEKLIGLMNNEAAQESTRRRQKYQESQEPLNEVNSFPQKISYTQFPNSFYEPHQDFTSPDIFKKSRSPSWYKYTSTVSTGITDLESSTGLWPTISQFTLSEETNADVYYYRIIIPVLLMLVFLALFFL

Tyrosine-protein kinase BTK (Homo sapiens), sequence (Q06187 whole entry): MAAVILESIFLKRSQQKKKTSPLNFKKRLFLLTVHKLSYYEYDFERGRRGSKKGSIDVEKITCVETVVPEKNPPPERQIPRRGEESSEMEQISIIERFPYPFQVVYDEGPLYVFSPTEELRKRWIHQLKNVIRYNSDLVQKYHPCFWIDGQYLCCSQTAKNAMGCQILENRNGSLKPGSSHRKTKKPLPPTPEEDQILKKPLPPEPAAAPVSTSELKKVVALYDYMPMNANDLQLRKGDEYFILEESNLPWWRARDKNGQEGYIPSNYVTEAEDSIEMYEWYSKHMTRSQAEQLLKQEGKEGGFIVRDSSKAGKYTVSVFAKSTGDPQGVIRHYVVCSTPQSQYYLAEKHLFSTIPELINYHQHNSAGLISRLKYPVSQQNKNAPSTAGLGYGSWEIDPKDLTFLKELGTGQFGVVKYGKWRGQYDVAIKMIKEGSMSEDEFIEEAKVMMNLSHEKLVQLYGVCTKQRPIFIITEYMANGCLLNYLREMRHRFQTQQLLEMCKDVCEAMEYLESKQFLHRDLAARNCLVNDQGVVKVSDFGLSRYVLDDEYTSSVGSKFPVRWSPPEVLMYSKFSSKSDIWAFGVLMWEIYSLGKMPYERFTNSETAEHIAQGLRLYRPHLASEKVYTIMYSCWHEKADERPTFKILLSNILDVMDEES

## COc1cc2nc(C)nc(N[C@H](C)c3cccc(-c4cn[nH]c4)c3)c2cc1OC
[1]
  Activity: 100%
[2]
  Activity: 87%
[3]
  Activity: 94%
[4]
  Activity: 61%
[5]
  Activity: 100%
[6]
  Activity: 55%
[7]
  Activity: 93%
[8]
  Activity: 93%

## COc1cc2ncnc(N[C@H](C)c3cccc4ccccc34)c2cc1OC
[1]
  Activity: 97%
[2]
  Activity: 97%
[3]
  Activity: 100%
[4]
  Activity: 100%
[5]
  Activity: 97%
[6]
  Activity: 96%
[7]
  Activity: 81%
[8]
  Activity: 81%
